# Results taken from patent US10959966B2, “Compositions and methods for modulating HEXM1 expression” (CASE WESTERN RESERVE UNIVERSITY, priority 2014, dated 2021).
# Legend:
# Format in all cases: cell-based
# [1] = system: HEXIM1 expression in LNCaP prostate cancer cells; assay: HEXIM1 expression by western blot in LNCaP cells treated with HMBA analogs
# Method: (§1) FIGS. 2(A-B) illustrate Western blots and a graph showing the effect of HMBA analogs on HEXIM1 expression. LNCaP cells were treated with vehicle, HMBA (5 mM) and its analogs at 500 μM for 24 h. Level of HEXIM1 (upper panel) and β-actin (lower panel) was analyzed by Western blot of cell extracts with HEXIM1 antibody and β-actin antibody respectively. The bands of HEXIM1 were quantified using ImageJ (NIH) and normalized to β-actin. The results are the representative of three independent experiments.
# as §1, with “3(A-B)” for “2(A-B)”, “lower concentration” for “the effect”, “identified” for “its”, “100” for “500”
# FIGS. 4(A-B) illustrate Western blots and a graph showing dose-dependent study of compound 4a1 and HMBA on HEXIM1 expression. Level of HEXIM1 (upper panel) and β-actin (lower panel) was analyzed by Western blot of cell extracts with HEXIM1 antibody and β-actin antibody respectively.
# HMBA analogs described herein can be synthesized based on the HMBA scaffold and then selected for their ability to induce HEXIM1 expression in an in vitro cell assay. For example, the synthesized HMBA analogs can be administered to cells, such as LNCaP prostate cancer cells, and the level of HEXIM1 in such cells can be measured using western blot analyses. The level of HEXIM1 expression of cells that are treated with a potential HMBA analog can be compared to control cells treated without the HMBA analog or with HMBA. Control cells (untreated or treated with HMBA) can be assigned a relative HEXIM1 expression value. Induction or promotion of HEXIM1 expression is achieved when the HEXIM1 expression relative to the control is increased at least about 1%, 5%, 10%, 15%, 20%, 30%, 50%, 75%, 100%, 200%, or more.
# The synthesis of the symmetrical and unsymmetrical derivatives is described in Scheme 1 and 2, respectively. For the symmetrical analogs, moieties A and C were kept identical. Besides the acetyl group of HMBA, methanesulfonyl group, propionyl group or butyryl group were introduced. In addition, a bulky benzoyl group was introduced. The active proton in the amide moiety was replaced with methyl group to generate a series of analogs with lower solubility. For the moiety B, various linkers such as 1,3-propylene, […] 1,4-cyclohexylene, 1,4-phenylene-bis(methylene), 1,4-cyclohexylene-bis(methylene) were tested for optimization. For the unsymmetrical analogs, the A and B moieties were kept the same as HMBA while the C moiety was modified with aryl or alkyl amide. A total of 32 compounds were synthesized, and these compounds were examined for their potency to induce HEXIM1 in LNCaP prostate cancer cells. HMBA (5 mM) was used as a positive control.
# Therefore, these three compounds were screened at lower concentrations.
# [2] = system: recruitment of CDK9 to HEXIM1 gene in LNCaP cells; assay: ChIP assay, CDK9 recruitment to HEXIM1 gene, LNCaP cells; conditions: 5 mM HMBA or 50 μM 4a1, 90 minutes
# Method: FIGS. 6(A-B) illustrate graphs showing HEXIM1 graphs showing HMBA and 4a1 induced recruitment of CDK9 to HEXIM1 promoter in MCF7 and LNCaP cells treated with 5 mM HMBA or 50 μM 4a1 for 90 minutes.
# ChIP assays were carried out as previously described. Anti-CDK9 antibody (D-7; cat# sc-13130) was obtained from Santa Cruz Biotechnology.
# The induction of HEXIM1 by HMBA appears to involve the release of free P-TEFb from 7SK snRNP, and recruitment of P-TEFb to HEXIM1 gene. P-TEFb is a heterodimer between the cyclin-dependent kinase 9 (Cdk9) and its regulatory subunit Cyclin T1 (CycT1). We thus determined the regulation of the recruitment of CDK9 to the HEXIM1 coding sequence by HMBA and 4a1.
# [3] = system: p21 expression in breast cancer MCF7 cells; assay: p21 expression by western blot, MCF7 cells; conditions: 5 mM HMBA or 50 μM 4a1, 18 hours
# Method: (§2) FIGS. 7(A-B) illustrate Western blots showing (A) MCF7 (control siRNA or HEXIM1 siRNA) and (B) LNCaP (control shRNA or HEXIM1 shRNA) cells treated with vehicle (DMSO), 5 mM HMBA, or 50 μM 4a1 for 18 hours.
# (§3) Cell lysates were analyzed by western blot as previously described. Anti-HEXIM1 was generated in the Montano laboratory. Primary antibodies against p21 (C-19; cat# sc-397), cyclin D1 (HD11; cat# sc-246) and myc (9E10; cat# sc-40) were obtained from Santa Cruz Biotechnology. Anti-GAPDH was obtained from Millipore. Anti-HIF-1α was obtained from Oxy-cell, Bioresearch).
# (§4) HMBA was investigated in a Phase II clinical trial due to its potent anti-cancer and cell differentiation activities. Moreover, the roles of HMBA, and potentially 4a1, as differentiating factors are advantageous for their therapeutic use when compared to cytotoxic agents. […] We also examined the ability of 4a1 to induce differentiation and the relative role of HEXIM1.
# [4] = system: p21 expression in prostate cancer LNCaP cells; assay: p21 expression by western blot, LNCaP cells; conditions: 5 mM HMBA or 50 μM 4a1, 18 hours
# Method: as §2, §3, §4
# [5] = system: HEXIM1 expression in MCF7/TOTR cells; assay: HEXIM1 expression in tamoxifen resistant MCF7/TOTR cells; conditions: 5 mM HMBA or 50 μM 4a1
# Method: FIGS. 9(A-B) illustrate a Western blot and plots showing HEXIM1 expression in MCF7 and MCF7(TOTR) cells in the presence of vehicle (DMSO), 5 mM HMBA or 50 μM 4a1.
# MCF7, MDA-MB-231, and LNCaP cells were obtained from the American Tissue Culture Collection, and were maintained as previously described. Construction of expression vectors for control miRNA or HEXIM1 miRNAs were described previously. MCF7 or LNCaP cells were transfected with expression vectors containing either the HEXIM1 miRNA insert or a control miRNA insert as previously described. Following blasticidin selection, cells expressing the highest level of GFP were flow-sorted and expanded. MDA-MB-231 cells were transfected with control or expression vector for Flag-tagged HEXIM1 as previously described. […]
# Cell lysates were analyzed by western blot as previously described. […]
# We have reported that HEXIM1 is required for the ability of antiestrogens to inhibit the activity of the Estrogen Receptor, that loss of HEXIM1 results in agonistic activity of tamoxifen, and that recurrence after tamoxifen therapy can be correlated with loss of HEXIM1 expression in human breast tissue samples. Thus we determined if HMBA and 4a1 can enhance sensitivity to tamoxifen of a tamoxifen resistant breast cancer line (MCF7/TOTR). […]
compound,measurement,setting,value
COc1ccc(CC(=O)NCCCCCCNC(C)=O)cc1 [Compound 4a1],HEXIM1 expression compared to the vehicle treatment (cutoff 2.5 fold),"[1]; LNCaP cells, analogs at 500 μM, 24 h, western blot normalized to β-actin",did not reach the cutoff
same,Dose-dependent study on HEXIM1 expression,"[1]; western blot, FIG. 4",dose-dependently induced HEXIM1 expression
same,Recruitment of CDK9 to HEXIM1 gene,[2],induce recruitment of CDK9
same,p21 expression,[3],induced p21 expression
same,p21 expression,[4],induction of p21 expression
same,HEXIM1 expression,[5],induced HEXIM1 expression
